Values quoted from earlier work in US20100151056A1, “DIETARY SUPPLEMENTS FOR DECREASING THE LATENT FOREIGN DNA LOAD” (priority 2008, published 2010).
Where two headings read alike, the source gives them in different places.

Legend:
[1] = system: EBV immediate-early protein Rta in P3HR1 cells
[2] = system: HBV cccDNA in HepG2-N10 cells; conditions: 22.9 ug/ml
B cells = conditions: 3 and 4 mM
LT1/LT2 promoter = conditions: BJAB cells, GA-treated vs untreated
[3] = system: LANA-1, v-cyclin, and v-FLIP proteins
[4] = system: Epstein-Barr virus in Raji cells; conditions: Raji cells superinfected with P2HR1 (LS) virus; read-out: concentration inhibiting EBV genome copy number and antigen expression by 50% (EC50)
AIF = conditions: KSHV-positive B cells, GA for 4 days
caspase cascade = conditions: KSHV-positive B cells untreated and GA-treated, ELISA
[5] = system: KSHV latent genes (LANA-1, v-cyclin, v-FLIP)
[6] = system: KSHV-positive and uninfected B cells
cdk6 = conditions: BC-1, BCBL-1 and BC-3 cells, Western blot

Question: For `O=C(O[C@@H]1Cc2c(O)cc(O)cc2O[C@@H]1c1cc(O)c(O)c(O)c1)c1cc(O)c(O)c(O)c1` [EGCG, Epigallocatechin gallate], which “P3HR1 cells expressing Rta” value ([1]; 70 mM EGCG) is on record?
Answer: 9.8%

Question: What about the “P3HR1 cells expressing Rta” value ([1]; 100 mM EGCG) of the same compound?
Answer: 0.5%

Question: And the “reduction of HBV cccDNA concentration” value [2]?
Answer: 60%

Question: For `C[C@H]1[C@H](OC(=O)CCC(=O)O)O[C@@H]2O[C@@]3(C)CC[C@H]4[C@H](C)CC[C@@H]1[C@@]24OO3` [artesunate, Artesunate], which “viremia after completion of therapy” value (CMV; 76 days after completion of therapy) is on record?
Answer: no increase in viremia

Question: What about the “viral decay T 1/2” value (CMV; CMV load kinetics during treatment) of the same compound?
Answer: 22 to 45.6 h

Question: What about the “decrease of viral DNA load” value (CMV; by day 7, oral 100 mg/day) of the same compound?
Answer: 1.7-2.1 log

Question: And the adverse effects (CMV; first 30 days of treatment)?
Answer: no adverse effects

Question: What about the “time to rapid reduction in viral load and improved hematopoiesis” value (CMV; oral 100 mg/day) of the same compound?
Answer: ≤ 10 days

Question: With `CC1(C)[C@@H](O[C@H]2O[C@H](C(=O)O)[C@@H](O)[C@H](O)[C@H]2O[C@@H]2O[C@H](C(=O)O)[C@@H](O)[C@H](O)[C@H]2O)CC[C@]2(C)[C@H]3C(=O)C=C4[C@@H]5C[C@@](C)(C(=O)O)CC[C@]5(C)CC[C@@]4(C)[C@]3(C)CC[C@@H]12` [GA, glycyrrhizic acid] as the compound, how does the “phosphorylated form of p53” value (p53; BC-3 cells transfected with pLPCX/LANA-1, 4 mM GA for 4 days) read?
Answer: very low concentration

Question: And the “p53 phosphorylated at Ser15” value (p53; KSHV-positive B cells following GA)?
Answer: high concentration

Question: What about the “toxicity at the tested levels” value (B cells) of the same compound?
Answer: not being toxic

Question: And the catalase activity increase (catalase; BC-1)?
Answer: 3 fold

Question: What about the catalase activity increase (catalase; BC-3) of the same compound?
Answer: 4 fold

Question: And the catalase activity increase (catalase; BCBL-1)?
Answer: 2 fold

Question: What about the “LT1/LT2 promoter activity (luciferase expression)” value (LT1/LT2 promoter) of the same compound?
Answer: does not affect

Question: What about the LANA-1 expression ([3]; KSHV positive cells, BCBL-1, BC-3, BC-1 treated 2, 3, 6 days) of the same compound?
Answer: decreased

Question: And the cells over-expressing v-cyclin ([3]; KSHV-positive B cells following GA treatment, FACS)?
Answer: 35-50%

Question: And the “apoptosis in BJAB cells” value (KSHV-positive B cells; KSHV-negative BJAB control cells)?
Answer: did not result in apoptosis

Question: And the “apoptosis (TUNEL-positive cells)” value (KSHV-positive B cells; KSHV-positive cells, FACS)?
Answer: 80-95%

Question: What about the “disruption of mitochondrial membranes or DNA condensation” value (KSHV-positive B cells; uninfected B cells treated with GA) of the same compound?
Answer: no disruptions

Question: What about the EC50 [4] of the same compound?
Answer: ~5 µM

Question: And the AIF localisation (AIF)?
Answer: diffuse nuclear staining

Question: And the “activation of the caspase cascade” value (caspase cascade)?
Answer: no activation

Question: And the “LT1 transcripts (LANA-1 probe)” value ([5]; GA 3 and 4 mM, BCBL-1 2 days, BC-3 3 days, BC-2 and BC-1 6 days)?
Answer: dose-dependent decrease

Question: And the “LT2 transcripts (v-FLIP and v-cyclin probes)” value ([5]; GA-treated KSHV-positive B cells)?
Answer: increase

Question: What about the “cells blocked in G1” value ([6]; KSHV-positive B cells, after 6 days GA) of the same compound?
Answer: 99%

Question: And the “cells blocked in G1” value ([6]; uninfected cells, untreated or following GA)?
Answer: 25-50%

Question: And the “increase of cdk6 expression” value (cdk6)?
Answer: 8- to 11 fold

Question: Which “reduction of viral DNA load” value (CMV; by day 7, initial ganciclovir treatment of the same patient) does the source give for `Nc1nc(O)c2ncn(COC(CO)CO)c2n1` [ganciclovir] here?
Answer: 1 log

Question: For `CC(/C=C/C(=O)NO)=C\[C@@H](C)C(=O)c1ccc(N(C)C)cc1` [TSA, reference compound], which “P3HR1 cells expressing Rta” value ([1]; following treatment with TSA) is on record?
Answer: 23.4%

Question: Which “disruption of mitochondrial membranes or DNA condensation” value (KSHV-positive B cells; TPA treatment (latent to lytic switch)) does the source give for `CCCCCCCCCCCCCC(=O)O[C@@H]1[C@@H](C)[C@@]2(O)[C@@H](C=C(CO)C[C@]3(O)C(=O)C(C)=C[C@@H]23)[C@@H]2C(C)(C)[C@]12OC(C)=O` [TPA, 12-O-tetradecanoyl-phorbol-13-acetate, reference compound] here?
Answer: did not disrupt
